Literature values, collected in paper doi:10.1101/2024.08.20.608791v1 (bioRxiv, 2024).

Tests used:
[1] = system: Caco-2
[2] = oral bioavailability in animals, species not stated
[3] = assay not specified
[4] = <LOQ

In the case of C[C@H]1O[C@@H](O[C@H]2[C@@H](O)C[C@H](O[C@H]3[C@@H](O)C[C@H](O[C@H]4CC[C@@]5(C)[C@H](CC[C@@H]6[C@@H]5C[C@@H](O)[C@]5(C)[C@@H](C7=CC(=O)OC7)CC[C@]65O)C4)O[C@@H]3C)O[C@@H]2C)C[C@H](O)[C@@H]1O [Digoxin], the “Caco-2 permeability (in words)” value ([1]; Caco-2 experiments) is given as “moderate permeability” and the “fa predicted using the Caco-2 assay” value ([1]; underprediction of human fa from Caco-2) is given as roughly 50%.

In the case of CC(=O)O[C@H]1C(=O)[C@@]2(C)[C@H]([C@H](OC(=O)c3ccccc3)[C@]34OC(=O)O[C@H]3[C@H](OC(=O)[C@H](O)[C@H](CC(C)C)NC(=O)OC(C)(C)C)C(C)=C1C4(C)C)[C@]1(OC(C)=O)CO[C@@H]1C[C@@H]2O [ortataxel], the “observed F in animals” value [2] is given as 25% and the “in vitro permeability (in words)” value [3] is given as “moderate in vitro permeability”.

For CC[C@@H]1C[C@]1(NC(=O)[C@@H]1C[C@@H](Oc2cc(-c3csc(NC(C)C)n3)nc3c(Cl)c(OCCN4CCOCC4)ccc23)CN1C(=O)[C@@H](NC(=O)O[C@@H]1C[C@@H]2C[C@@H]2C1)C(C)(C)C)C(=O)O [vedroprevir], the “observed F in animals” value [2] is listed as 49-123%, the “in vitro permeability (in words)” value [3] is listed as “low in vitro permeability” and the “solubility in water (in words)” value [4] is listed as “practically insoluble in water”.

For CC[C@@H]([C@H](C)O)n1ncn(-c2ccc(N3CCN(c4ccc(OC[C@@H]5CO[C@@](Cn6cncn6)(c6ccc(F)cc6F)C5)cc4)CC3)cc2)c1=O [posaconazole], the “observed F in animals” value [2] is given as 52%, the “in vitro permeability (in words)” value [3] is given as “high in vitro permeability” and the “solubility in water (in words)” value [4] is given as “practically insoluble in water”. The “calculated log P” value (calculated) was 5.4 and the “experimentally determined log P” value (experimental) was 2.4.
